In brackets after ≈: the same amount, converted by molar mass. Read-outs that look alike come from different tables or passages of the source.
What was measured:
[1] = In vitro skin permeation, Franz diffusion cells; format: in vitro ADME, porcine; conditions: donor saturated solution in isopropyl myristate; for Q24h, the cumulative amount of drug permeated per unit area at 24 h / Tlag / Jss, the steady-state flux: porcine ear skin, receptor PBS pH 7.4, 32 °C; for Tlag: linear portion of permeation curve extrapolated to the abscissa; for Jss, the steady-state flux: slope of the linear portion of the plots
Source text: According to the description in our previous report (Xu et al., [2011]), the porcine ears immediately obtained from the killed pig were supplied by local slaughterhouse (Xiangtan, China). The hair of porcine ears was carefully cut off with animal hair clippers. Then, skin grafting knife (Medical Equipment Factory of Shanghai Medical Instruments Co., Ltd., Shanghai, China) was employed to separate the skin and subcutaneous fat, and the skin of thickness in range of 0.6 ± 0.1 mm was obtained. The skin was kept frozen at −20 °C no more than 2 weeks.
Two-chamber Franz diffusion cells (receiver volume of 6.5 mL, effective diffusion area of 2.8 cm^2) were used for the in vitro transdermal experiments. The prepared skin was placed between the cell halves with the SC facing the donor cell. The receptor compartment was filled with phosphate buffered saline (pH 7.4), which was put in a water bath at 32 ± 0.5 °C and stirred with a magnetic bar at 300 rpm. The saturated solution of DCN and its ion-pair compounds in isopropyl myristate was filled in the donor cell, and a glass sheet was employed to cover the supply chamber during the in vitro permeation experiments. Since the experiment started, 1.0 mL sample was withdrawn from the receptor compartment at predetermined time interval 2, 4, 6, 8, 10, 12, 14, and 24 h. Subsequently, the equal volume of fresh PBS was replenished. These investigations were performed with different individual skin at least in triplicate.
(§1) The samples were determined by an LC-20A HPLC system (SHIMADZU, Kyoto, Japan). The separation was achieved on an InertSustain C18 column (4.6 mm × 250 mm, 5 µm, SHIMADZU, Kyoto, Japan) with the flow rate keeping at 1.0 mL/min, the column temperature maintaining at 40 °C and mobile phase consisting of methanol:water (25:75, v/v) with 0.4% phosphoric acid in water. Injection volume for each run was 50 μL, and detection wavelength was 254 nm.

[2] = Equilibrium solubility experiments; format: physicochemical
Description: The obtained complexes were vibrated by ultrasonic for 10 min then continuously shaken in a water bath at 32 °C until equilibrium.
as §1

[3] = Apparent distribution coefficient (Log P), shake-flask method; format: physicochemical; conditions: n-octanol/distilled water, 48 h, 32 °C
Description: as §1

[4] = aqueous buffer, thermodynamic from solid, PBS pH 7.4, 32 °C, read-out: Equilibrium solubility PBS (pH 7.4)
[5] = thermodynamic from solid, isopropyl myristate, 32 °C, read-out: Equilibrium solubility IPM
[6] = thermodynamic from solid, water, 32 °C, read-out: Equilibrium solubility Water

| SMILES | Q24h, the cumulative amount of drug permeated per unit area at 24 h [1] | Tlag [1] | Jss, the steady-state flux [1] | other results |
| --- | --- | --- | --- | --- |
| CC(=O)Oc1cccc2c1C(=O)c1c(OC(C)=O)cc(C(=O)O)cc1C2=O.CCN(CC)CC [DCN-Tea] | 2.85 ± 0.64 µg/cm^2 | 3.39 ± 0.55 h | 0.11 ± 0.04 µg/cm^2⋅h^–1 | solubility thermodynamic at 48 h [2, 4]: 8188 ± 44.4 µg/mL; solubility thermodynamic at 48 h [2, 5]: 1385 ± 13.7 µg/mL; solubility thermodynamic at 48 h [2, 6]: 3233 ± 12.6 µg/mL |
| CC(=O)Oc1cccc2c1C(=O)c1c(OC(C)=O)cc(C(=O)O)cc1C2=O.CCCCCCN [DCN-N6] | 3.86 ± 0.21 µg/cm^2 | 1.52 ± 0.36 h | 0.10 ± 0.02 µg/cm^2⋅h^–1 | – |
| CC(=O)Oc1cccc2c1C(=O)c1c(OC(C)=O)cc(C(=O)O)cc1C2=O.CCCCCCCCCCCCN [DCN-N12] | – | 2.50 ± 0.18 h | 0.34 ± 0.02 µg/cm^2⋅h^–1 | – |
| CC(=O)Oc1cccc2c1C(=O)c1c(OC(C)=O)cc(C(=O)O)cc1C2=O.CCCCCCCCCCCCCCN [DCN-N14] | 7.03 ± 1.56 µg/cm^2 | 1.31 ± 0.11 h | 0.24 ± 0.05 µg/cm^2⋅h^–1 | – |
| CC(=O)Oc1cccc2c1C(=O)c1c(OC(C)=O)cc(C(=O)O)cc1C2=O.NCCO [DCN-eta] | 3.04 ± 0.67 µg/cm^2 | 1.41 ± 0.56 h | 0.09 ± 0.04 µg/cm^2⋅h^–1 | solubility thermodynamic at 48 h [2, 4]: 6100 ± 24.7 µg/mL; solubility thermodynamic at 48 h [2, 5]: 121.6 ± 1.2 µg/mL; solubility thermodynamic at 48 h [2, 6]: 3060 ± 35.8 µg/mL |
| CC(=O)Oc1cccc2c1C(=O)c1c(OC(C)=O)cc(C(=O)O)cc1C2=O.CCCCCCCCCCN [DCN-N10] | 6.41 ± 0.23 µg/cm^2 | 1.38 ± 0.14 h | 0.20 ± 0.03 µg/cm^2⋅h^–1 | – |
| CC(=O)Oc1cccc2c1C(=O)c1c(OC(C)=O)cc(C(=O)O)cc1C2=O [DCN, Diacerein, reference compound] | 1.83 ± 0.22 µg/cm^2 | 2.68 ± 0.78 h | 0.06 ± 0.01 µg/cm^2⋅h^–1 | solubility thermodynamic at 48 h [2, 4]: 1442 ± 5.58 µg/mL (≈ 3910 µM); solubility thermodynamic at 48 h [2, 5]: 83.6 ± 18.1 µg/mL (≈ 227 µM); solubility thermodynamic at 48 h [2, 6]: 8.29 ± 0.27 µg/mL (≈ 22.5 µM); solubility thermodynamic at 48 h ([2]; water, 32 °C, read-out: Equilibrium solubility Water): ≤ 10 µg/mL |
| CC(=O)Oc1cccc2c1C(=O)c1c(OC(C)=O)cc(C(=O)O)cc1C2=O.OCCN(CCO)CCO [DCN-Teta] | 7.89 ± 0.38 µg/cm^2 | 1.52 ± 0.48 h | 0.17 ± 0.05 µg/cm^2⋅h^–1 | transdermal permeation rate (comparison in words) ([1]; porcine ear skin in vitro): highest transdermal permeation rate |
| CC(=O)Oc1cccc2c1C(=O)c1c(OC(C)=O)cc(C(=O)O)cc1C2=O.CCCCCCCCCCCCCCCCN [DCN-N16] | 6.44 ± 0.36 µg/cm^2 | 1.28 ± 0.23 h | 0.22 ± 0.01 µg/cm^2⋅h^–1 | – |
| CC(=O)Oc1cccc2c1C(=O)c1c(OC(C)=O)cc(C(=O)O)cc1C2=O.CCN [DCN-ea] | 2.17 ± 0.30 µg/cm^2 | 1.79 ± 0.66 h | 0.08 ± 0.02 µg/cm^2⋅h^–1 | Log P [3]: –0.39 ± 0.007; Equilibrium solubility PBS (pH 7.4) ([2]; PBS pH 7.4, 32 °C, 48 h): 12155.69 ± 81.21 μg/mL; Equilibrium solubility IPM ([2]; isopropyl myristate, 32 °C, 48 h): 92.80 ± 14.10 µg/mL; Equilibrium solubility Water ([2]; water, 32 °C, 48 h): 6928.52 ± 4.80 µg/mL |
| CC(=O)Oc1cccc2c1C(=O)c1c(OC(C)=O)cc(C(=O)O)cc1C2=O.CCNCC [DCN-Dea] | 2.82 ± 0.49 µg/cm^2 | 4.12 ± 1.14 h | 0.10 ± 0.01 µg/cm^2⋅h^–1 | – |
| CC(=O)Oc1cccc2c1C(=O)c1c(OC(C)=O)cc(C(=O)O)cc1C2=O.CCCCCCCCCCCCCCCCCCN [DCN-N18] | 5.97 ± 1.25 µg/cm^2 | 1.42 ± 0.52 h | 0.20 ± 0.01 µg/cm^2⋅h^–1 | – |
| CC(=O)Oc1cccc2c1C(=O)c1c(OC(C)=O)cc(C(=O)O)cc1C2=O.CCCCCCCCN [DCN-N8] | 4.30 ± 0.63 µg/cm^2 | 2.15 ± 0.22 h | 0.14 ± 0.03 µg/cm^2⋅h^–1 | – |
| CC(=O)Oc1cccc2c1C(=O)c1c(OC(C)=O)cc(C(=O)O)cc1C2=O.OCCNCCO [DCN-Deta] | 4.03 ± 0.71 µg/cm^2 | 2.16 ± 0.55 h | 0.11 ± 0.02 µg/cm^2⋅h^–1 | – |
